Values after ≈ are worked out from the molar mass of the structure shown. Like-named read-outs stand apart in the source and are kept apart here.
Experiments:
[1] = system: Plasmodium falciparum NF54; test: P. falciparum in vitro drug sensitivity assay on asexual blood stage parasites ([3H]-hypoxanthine incorporation); format: cell-based; conditions: for IC50: Plasmodium falciparum, NF54, Table 1 and main text, read-out: PfNF54 IC50; for PfNF54 IC50: Table 1 and main text
[2] = system: Staphylococcus aureus ssp. Aureus; test: In vitro antibacterial activity (MIC), S. aureus; format: cell-based; conditions: Staphylococcus aureus, read-out: Sa MIC95
[3] = system: Pseudomonas aeruginosa PA14; test: In vitro antibacterial activity (growth inhibition, OD600), P. aeruginosa; format: cell-based
[4] = system: Acinetobacter baumannii; test: In vitro antibacterial activity (growth inhibition, OD600), A. baumannii; format: cell-based
[5] = system: E. coli K12; test: In vitro antibacterial activity (growth inhibition, OD600), E. coli wild-type; format: cell-based; conditions: Escherichia coli
[6] = system: Escherichia coli ∆tolC; test: microbe, parasite or virus in culture; format: cell-based; conditions: for MIC / inhibition at 50 µM: Escherichia coli; for inhibition at 50 µM: read-out: Ec∆tolC inh. at 50 µM (%)
[7] = system: Mycobacterium tuberculosis (Mtb) strain H37Rv; test: microbe, parasite or virus in culture; format: cell-based; conditions: 168 h, 7 days, footnote b: not active at maximum solubility, read-out: MtbH37Rv MIC90
[8] = system: Streptococcus pneumoniae (DSM20566); test: In vitro antibacterial activity (MIC), S. pneumoniae; format: cell-based; conditions: Streptococcus pneumoniae, DSM20566, read-out: Sp MIC95
[9] = in vitro; conditions: human, HepG2 CC50, 48 h, MTT
[10] = Table S2, with standard deviation
[11] = PA14, 50 μM compound, Table 1 and main text, read-out: PA14 inh. at 50 μM
[12] = 50 μM compound, Table 1 and main text, read-out: Ab inh. at 50 μM
[13] = K12, 50 µM, Table S1, with standard deviation, read-out: EcK12 inh. at 50 µM (%)
[14] = PA14, 50 µM, Table S1, with standard deviation, read-out: PA14 inh. at 50 µM (%)
[15] = K12, read-out: EcK12 inh. at 50 μM, 50 μM compound, Table 1 and main text
[16] = 50 µM, Table S1, with standard deviation, read-out: Ab inh. at 50 µM (%)

O=C(Nc1cccc(CNC2=NCCN2)c1)c1cc(-c2cc(Cl)ccc2O)[nH]n1 [Compound 7C]
IC50 [1]: 390 nM
MIC ([2]; Table 1 and main text): 22.3 µM (≈ 9.16 µg/mL)
MIC [2, 10]: 22.3 ± 0.6 µM (≈ 9.16 µg/mL)
inhibition at 50 µM [3, 11]: 41%
inhibition at 50 µM [4, 12]: 33%
inhibition at 50 µM ([5]; K12, 50 μM compound, Table 1 and main text, read-out: EcK12 inh. at 50 μM): 29%
inhibition at 50 µM [5, 13]: 29.4 ± 0.6%
MIC ([6]; read-out: EcΔtolC MIC95): 13 µM (≈ 5.34 µg/mL)
MIC ([6]; read-out: Ec∆tolC MIC95 (µM)): 13 ± 3 µM (≈ 5.34 µg/mL)
MIC90 [7]: 32 µM (≈ 13.1 µg/mL)
MIC ([8]; Table 1 and main text): 48.2 µM (≈ 19.8 µg/mL)
MIC [8, 10]: 48.2 ± 0.8 µM (≈ 19.8 µg/mL)
CC50 [9]: > 50000 nM

CC(C)(C)OC(=O)N1CCN=C1NCc1cccc(NC(=O)c2cc(-c3cc(Cl)ccc3O)[nH]n2)c1 [Compound 7D]
IC50 [1]: 360 nM
MIC ([2]; Table 1 and main text): 24 µM (≈ 12.3 µg/mL)
MIC [2, 10]: 24 µM (≈ 12.3 µg/mL)
inhibition at 50 µM [3, 11]: ≥ 45%
inhibition at 50 µM [3, 14]: 54.8 ± 0.8%
inhibition at 50 µM [5, 15]: ≥ 45%
MIC ([6]; read-out: EcΔtolC MIC95): 14 µM (≈ 7.15 µg/mL)
MIC ([6]; read-out: Ec∆tolC MIC95 (µM)): 14 ± 4 µM (≈ 7.15 µg/mL)
MIC90 [7]: 64 µM (≈ 32.7 µg/mL)
MIC ([8]; Table 1 and main text): 31 µM (≈ 15.8 µg/mL)
MIC [8, 10]: 31 ± 11 µM (≈ 15.8 µg/mL)
CC50 [9]: 19000 nM

N=C(N)NCc1cccc(NC(=O)c2cc(-c3cc(Cl)ccc3O)[nH]n2)c1 [Compound 7G]
IC50 [1]: 210 nM
MIC ([2]; Table 1 and main text): 22 µM (≈ 8.47 µg/mL)
MIC [2, 10]: 22 ± 2 µM (≈ 8.47 µg/mL)
inhibition at 50 µM [3, 11]: 56%
inhibition at 50 µM [4, 12]: 24%
inhibition at 50 µM [5, 15]: ≥ 45%
MIC ([6]; read-out: EcΔtolC MIC95): 13 µM (≈ 5 µg/mL)
MIC ([6]; read-out: Ec∆tolC MIC95 (µM)): 13 ± 3 µM (≈ 5 µg/mL)
MIC90 [7]: 64 µM (≈ 24.6 µg/mL)
MIC ([8]; Table 1 and main text): 49 µM (≈ 18.9 µg/mL)
MIC [8, 10]: 49 µM (≈ 18.9 µg/mL)
CC50 [9]: > 50000 nM

CC(C)(C)OC(=O)N1CCN=C1NCc1ccc(NC(=O)c2cc(-c3cc(Cl)ccc3O)[nH]n2)cc1 [Compound 8D]
MIC ([2]; Table 1 and main text): > 50 µM
MIC [2, 10]: > 50 µM
MIC ([6]; read-out: EcΔtolC MIC95): > 50 µM
inhibition at 50 µM [6]: 18.5 ± 0.8%
MIC90 [7]: > 64 µM
MIC ([8]; Table 1 and main text): > 50 µM
MIC [8, 10]: > 50 µM
CC50 [9]: > 50000 nM

CC(C)(C)OC(=O)NCc1cc(NC(=O)c2cc(-c3cc(Cl)ccc3O)[nH]n2)cc(C(F)(F)F)c1 [Compound 9B, tert-Butyl (3-(5-(5-chloro-2-hydroxyphenyl)-1H-pyrazole-3-carboxamido)-5-(trifluoromethyl)benzyl)carbamate]
IC50 [1]: 203 nM
MIC ([2]; Table 1 and main text): > 50 µM
MIC [2, 10]: > 50 µM
MIC ([6]; read-out: EcΔtolC MIC95): > 50 µM
inhibition at 50 µM [6]: 48 ± 8%
MIC90 [7]: > 64 µM
MIC ([8]; Table 1 and main text): 30 µM (≈ 15.3 µg/mL)
MIC [8, 10]: 30 ± 5 µM (≈ 15.3 µg/mL)
CC50 [9]: 5000 nM

CC(C)(C)OC(=O)N1CCN=C1NCc1cc(NC(=O)c2cc(-c3cc(Cl)ccc3O)[nH]n2)cc(C(F)(F)F)c1 [Compound 9D]
IC50 [1]: 150 nM
MIC ([2]; Table 1 and main text): 12 µM (≈ 6.95 µg/mL)
MIC [2, 10]: 12 ± 3 µM (≈ 6.95 µg/mL)
inhibition at 50 µM [3, 11]: 21%
inhibition at 50 µM [4, 16]: 81.6 ± 0.6%
MIC ([6]; read-out: EcΔtolC MIC95): 24 µM (≈ 13.9 µg/mL)
MIC ([6]; read-out: Ec∆tolC MIC95 (µM)): 24 µM (≈ 13.9 µg/mL)
EcΔtolC MIC95 ([6]; Table 1 and main text): 24.0 µM
MIC90 [7]: 16 µM (≈ 9.26 µg/mL)
MIC ([8]; Table 1 and main text): 21 µM (≈ 12.2 µg/mL)
MIC [8, 10]: 21 ± 9 µM (≈ 12.2 µg/mL)
CC50 [9]: 14000 nM

CC(C)(C)OC(=O)NCc1ccc(NC(=O)c2cc(-c3cc(Cl)ccc3O)[nH]n2)cc1C(F)(F)F [Compound 10B, tert-Butyl (4-(5-(5-chloro-2-hydroxyphenyl)-1H-pyrazole-3-carboxamido)-2-(trifluoromethyl)benzyl)carbamate]
IC50 [1]: 190 nM
MIC ([2]; Table 1 and main text): > 50 µM
MIC [2, 10]: > 50 µM
inhibition at 50 µM [4, 16]: < 10%
inhibition at 50 µM [5, 13]: < 10%
MIC ([6]; read-out: EcΔtolC MIC95): > 50 µM
inhibition at 50 µM [6]: < 10%
MIC ([8]; Table 1 and main text): > 50 µM
MIC [8, 10]: > 50 µM
CC50 [9]: > 50000 nM

O=C(Nc1ccc(C(F)(F)F)c(N2CCNCC2)c1)c1cc(-c2cc(Cl)ccc2O)[nH]n1 [Compound 13A, 5-(5-Chloro-2-hydroxyphenyl)-N-(3-(piperazin-1-yl)-4-(trifluoromethyl)phenyl)-1H-pyrazole-3-carboxamide]
IC50 [1]: 160 nM
MIC ([2]; Table 1 and main text): > 50 µM
MIC [2, 10]: > 50 µM
inhibition at 50 µM [3, 14]: < 10%
inhibition at 50 µM [4, 16]: < 10%
MIC ([6]; read-out: EcΔtolC MIC95): > 50 µM
inhibition at 50 µM [6]: 46 ± 5%
MIC90 [7]: 32 µM (≈ 14.9 µg/mL)
MIC ([8]; Table 1 and main text): 29 µM (≈ 13.5 µg/mL)
MIC [8, 10]: 29 ± 2 µM (≈ 13.5 µg/mL)
CC50 [9]: 8000 nM

CC(C)(C)OC(=O)N1CCN(c2cc(NC(=O)c3cc(-c4cc(Cl)ccc4O)[nH]n3)ccc2C(F)(F)F)CC1 [Compound 13B, tert-Butyl 4-(5-(5-(5-chloro-2-hydroxyphenyl)-1H-pyrazole-3-carboxamido)-2-(trifluoromethyl)phenyl)piperazine-1-carboxylate]
IC50 [1]: 342 nM
MIC ([2]; Table 1 and main text): > 50 µM
MIC ([6]; read-out: EcΔtolC MIC95): > 50 µM
inhibition at 50 µM [6]: < 10%
MIC ([8]; Table 1 and main text): > 50 µM
CC50 [9]: 2800 nM

O=C(c1cc(-c2cc(Cl)ccc2O)[nH]n1)N1CCNCC1 [Compound 14A, (5-(5-Chloro-2-hydroxyphenyl)-1H-pyrazol-3-yl)(piperazin-1-yl)methanone]
IC50 [1]: 3300 nM
PfNF54 IC50 [1]: inactive
MIC ([2]; Table 1 and main text): > 50 µM
MIC [2, 10]: > 50 µM
MIC ([6]; read-out: EcΔtolC MIC95): > 50 µM
inhibition at 50 µM [6]: 18 ± 4%
MIC90 [7]: > 16 µM
MIC ([8]; Table 1 and main text): > 50 µM
MIC [8, 10]: > 50 µM
CC50 [9]: > 50000 nM

N=C(N)N1CCN(C(=O)c2cc(-c3cc(Cl)ccc3O)[nH]n2)CC1 [Compound 14G]
IC50 [1]: > 5000 nM
PfNF54 IC50 [1]: inactive
MIC ([2]; Table 1 and main text): > 50 µM
MIC [2, 10]: > 50 µM
MIC ([6]; read-out: EcΔtolC MIC95): > 50 µM
inhibition at 50 µM [6]: 18 ± 9%
MIC90 [7]: > 64 µM
MIC ([8]; Table 1 and main text): > 50 µM
MIC [8, 10]: > 50 µM
CC50 [9]: > 50000 nM
